Data from PMC12249711, “Comprehensive Evaluation of 1H-Isoindole-1,3(2H)-Dione Derivatives: Pharmacokinetic Studies and Analgesic Potential in Various Pain Models” (International Journal of Molecular Sciences, 2025).

Assays:
mice [1] = assay: Glutamate-induced pain test; type: in vivo, Albino Swiss mice; settings: vs vehicle
Description: Prior to the experimental procedure, individual mice were acclimatized in an observation chamber (n = 128). Thirty minutes before the test, the compounds under investigation were administered intraperitoneally (i.p.). A volume of 20 μL of a glutamate solution, containing 30 μmol per mouse paw, was subcutaneously injected into the ventral surface of the right hind paw to induce a pain response. Glutamate-induced nociception was assessed 15 min post-injection. The duration of time spent licking the injected paw was recorded using a chronometer and was interpreted as an indicator of nociception.

mice [2] = assay: Streptozotocin-induced diabetic neuropathy, von Frey test (tactile allodynia); type: in vivo, Albino Swiss mice; settings: diabetic (STZ) mice, 10 mg/kg i.p.; for Pain threshold after compound administration (von Frey): 30 min before the test; for Analgesic activity (von Frey): vs pre-drug threshold
Description: (§1) The induction of diabetes neuropathy in mice was achieved through the administration of streptozotocin (STZ), dissolved in PBS at a dose of 200 mg/kg in a constant volume of 0.1 mL/10 g of mouse body weight, intraperitoneally; (n = 50). Blood glucose levels were measured immediately prior to the administration of streptozotocin and 14 and 21 days following this administration in order to confirm the presence of hyperglycemia. For this purpose, 5 µL of blood was drawn from the tail vein of the mice using a strip glucose meter (AccuChek Active, Roche, Boulogne-Billancourt, France).
Furthermore, to assess the response to mechanical stimuli (i.e., tactile/mechanical) allodynia), the von Frey test was carried out with application of the electronic von Frey unit (Panlab, Cornellà de Llobregat, Spain) equipped with a fiber, the distal end of which was applied to the right hind paw of the mouse. The device automatically recorded the pressure force (in grams) applied until the paw withdrawal response occurred. In the absence of pain, an increase in the pressure value was observed. The force at which the animal withdrew its paw was considered the pain threshold for the mechanical stimulus. Measurements were taken before streptozotocin administration (in normoglycemic mice) and again 21 days later, both before and after compound administration, in diabetic mice (glucose level > 300 mg/dL) that had developed mechanical allodynia. On the day of the experiment, each mouse was placed in an observation chamber with a wire mesh bottom and was allowed to habituate for 1 h. After the habituation period, in order to obtain baseline values, each mouse was tested 3 times alternately in each hind paw, allowing at least 30 s between each measurement. Then, the mice were pretreated intraperitoneally with compound or vehicle, and 30 min later the animals were tested again and three measurements were taken, the mean of which was calculated to obtain the mean values after drug administration for each mouse. The anti-allodynic effect was defined as an increase in the pressure force value required to elicit a pain response, compared to the control group.

mice [3] = assay: Streptozotocin-induced diabetic neuropathy, hot plate test (thermal hyperalgesia); type: in vivo, Albino Swiss mice; settings: diabetic (STZ) mice, 10 mg/kg i.p.; for Analgesic activity (hot plate): vs pre-drug latency
Description: as §1
To assess increased sensitivity to thermal stimuli, we used a hot plate testing apparatus (Panlab/Harvard Apparatus, Cornellà de Llobregat, Spain), following the methodology originally described by. In this procedure, after determining the baseline pain response time, 30 min after drug administration, mice were placed on a hot plate maintained at 55 °C and monitored for pain-related behaviors such as licking their hind paws or jumping. To avoid potential damage to paw tissue, a time limit of 45 s was set.

[4] = design: method as in PMID 35396875; settings: within the tested dose range; cited from earlier work
rats [5] = assay: Carrageenan-induced mechanical hyperalgesia (pain pressure threshold, Randall-Selitto); type: in vivo, Wistar rats; settings: for Pain Threshold: mean ± SEM, rats; for Increase in pain threshold: vs control
Description: The acute and local inflammation and paw edema was induced by intraplantar (i.pl.) injection of 0.1 mL of 1% carrageenan solution in PBS into the rat’s right hind paw, according to the modified method of Winter and Lence, as described previously; (n = 84). The paw volume was measured using the dislocation of the water column of the plethysmometer (Type a, 7140; Plethysmometer, Ugo Basile, Gemonio, Italy) before (V0) and at 1, 2, and 3 h (V1, V2, V3) after i.pl. carrageenan injection. […] Vehicle (1% Tween 80) was administered by the same route as the tested compounds.
Furthermore, we performed the pain pressure threshold test to assess heightened sensitivity to mechanical stimuli. The experiment was conducted based on the method described by Randall and Selitto [58], with certain modifications. An analgesymeter (AnalgesyMeter 37215, Ugo Basile, Gemonio, Italy) was used to gradually apply increasing pressure (measured in grams) to the plantar surface of the right hind paw of the rat until paw withdrawal occurred. At this point, the intensity of the applied force (in grams) was recorded as the withdrawal threshold. The maximum force intensity was set at 250 g. Carrageenan induces a decrease in the nociceptive threshold in response to a mechanical stimulus, a condition referred to as hyperalgesia. For each rat, paw withdrawal thresholds were recorded both before (0 h) and 1, 2, and 3 h after carrageenan administration (i.e., 3.5 h after intraperitoneal pretreatment with the tested compounds). […] The analgesic effect of the tested compounds was assessed in comparison with the control group (1% Tween 80); the injection was performed intraperitoneally within 30 min of carrageenan administration. An analgesic effect occurs when the compound administered produces a pain response with greater pressure than the control group.

rats [6] = assay: Carrageenan-induced paw edema (plethysmometer); type: in vivo, Wistar rats; settings: for Change in Edema Volume: mean ± SEM, rats; for Reduction in edema volume: vs control
Description: The acute and local inflammation and paw edema was induced by intraplantar (i.pl.) injection of 0.1 mL of 1% carrageenan solution in PBS into the rat’s right hind paw, according to the modified method of Winter and Lence, as described previously; (n = 84). […] Vehicle (1% Tween 80) was administered by the same route as the tested compounds.

mice [7] = assay: Capsaicin-induced neurogenic pain test; type: in vivo, Albino Swiss mice; settings: vs vehicle
Description: The examined compounds were administered 30 min before the test (n = 112). The pain reaction was induced by injecting 20 μL of a capsaicin solution prepared in saline (1.6 μg capsaicin per mouse paw) into the dorsal surface of the right hind paw for further details. The animals were immediately placed individually into glass beakers and the amount of time spent licking the injected paw was recorded for 5 min with a chronometer.

[8] = 10 mg/kg i.p., 0 h (before carrageenan)
[9] = 10 mg/kg i.p., 1 h after carrageenan
[10] = 10 mg/kg i.p., 2 h after carrageenan
[11] = 10 mg/kg i.p., 3 h after carrageenan
[12] = 20 mg/kg i.p., 0 h (before carrageenan)
[13] = 20 mg/kg i.p., 1 h after carrageenan
[14] = 20 mg/kg i.p., 2 h after carrageenan
[15] = 20 mg/kg i.p., 3 h after carrageenan

O=C1c2ccccc2C(=O)N1CC(O)CN1CCN(c2ccccc2)CC1 (stereo not drawn) [Compound F1]
Reduction of glutamate-induced pain reaction (mice [1]; 5 mg/kg i.p.): 41.3%
Reduction of glutamate-induced pain reaction (mice [1]; 10 mg/kg i.p.): 82.3%
Reduction of glutamate-induced pain reaction (mice [1]; 20 mg/kg i.p.): 87.2%
Pain threshold after compound administration (von Frey) (mice [2]): 4.28 ± 0.32 g
Analgesic activity (von Frey) (mice [2]): 48.6%
Pain response latency time after compound administration (hot plate, 55 °C) (mice [3]): 25.59 ± 1.84 s
Analgesic activity (hot plate) (mice [3]): 56.6%
Effect on locomotor activity / sedation [4]: mild sedative effects
Pain Threshold (rats [5]; [8]): 128.3 ± 1.1 g
Pain Threshold (rats [5]; [9]): 138.3 ± 2.1 g
Pain Threshold (rats [5]; [10]): 142.5 ± 2.1 g
Pain Threshold (rats [5]; [11]): 134.2 ± 2.1 g
Increase in pain threshold (rats [5]; 10 mg/kg, 1 h): 16%
Increase in pain threshold (rats [5]; 10 mg/kg, 2 h): 19.5%
Increase in pain threshold (rats [5]; 10 mg/kg, 3 h): 14.2%
Pain Threshold (rats [5]; [12]): 130.0 ± 2.9 g
Pain Threshold (rats [5]; [13]): 143.3 ± 2.5 g
Pain Threshold (rats [5]; [14]): 148.3 ± 2.8 g
Pain Threshold (rats [5]; [15]): 146.7 ± 1.1 g
Increase in pain threshold (rats [5]; 20 mg/kg, 1 h): 20.2%
Increase in pain threshold (rats [5]; 20 mg/kg, 2 h): 24.4%
Increase in pain threshold (rats [5]; 20 mg/kg, 3 h): 25%
Change in Edema Volume (rats [6]; [9]): 1.14 ± 0.05 mL
Change in Edema Volume (rats [6]; [10]): 1.51 ± 0.09 mL
Change in Edema Volume (rats [6]; [11]): 1.67 ± 0.09 mL
Reduction in edema volume (rats [6]; 10 mg/kg, 1 h): 27.8%
Reduction in edema volume (rats [6]; 10 mg/kg, 2 h): 17.5%
Reduction in edema volume (rats [6]; 10 mg/kg, 3 h): 17%
Change in Edema Volume (rats [6]; [13]): 1.09 ± 0.02 mL
Change in Edema Volume (rats [6]; [14]): 1.15 ± 0.07 mL
Change in Edema Volume (rats [6]; [15]): 1.55 ± 0.09 mL
Reduction in edema volume (rats [6]; 20 mg/kg, 2 h): 37.2%
Reduction in edema volume (rats [6]; 20 mg/kg, 3 h): 22.1%
Reduction of capsaicin-induced neurogenic pain (mice [7]; 5 mg/kg i.p.): 31.7%
Reduction of capsaicin-induced neurogenic pain (mice [7]; 10 mg/kg i.p.): 40.8%
Reduction of capsaicin-induced neurogenic pain (mice [7]; 20 mg/kg i.p.): 69.0%

COc1ccccc1N1CCN(CC(O)CN2C(=O)c3ccccc3C2=O)CC1 (stereo not drawn) [Compound F2]
Reduction of glutamate-induced pain reaction (mice [1]; 5 mg/kg i.p.): 54.3%
Reduction of glutamate-induced pain reaction (mice [1]; 10 mg/kg i.p.): 62.9%
Reduction of glutamate-induced pain reaction (mice [1]; 20 mg/kg i.p.): 68.7%
Pain threshold after compound administration (von Frey) (mice [2]): 4.58 ± 0.29 g
Analgesic activity (von Frey) (mice [2]): 39.4%
Pain response latency time after compound administration (hot plate, 55 °C) (mice [3]): 30.36 s
Analgesic activity (hot plate) (mice [3]): 49.33%
Effect on locomotor activity / sedation [4]: dose-dependent suppression of spontaneous locomotor activity
Pain Threshold (rats [5]; [8]): 132.5 ± 2.1 g
Pain Threshold (rats [5]; [10]): 127.5 ± 1.5 ns g
Pain Threshold (rats [5]; [11]): 130 ± 2.6 ns g
Effect on pain threshold (in words) (rats [5]; 10 mg/kg, over 1–3 h): lack of analgesic activity
Pain Threshold (rats [5]; [12]): 132.5 ± 2.8 g
Pain Threshold (rats [5]; [13]): 147.5 ± 2.5 g
Pain Threshold (rats [5]; [14]): 141.7 ± 1.7 g
Pain Threshold (rats [5]; [15]): 139.2 ± 0.8 g
Increase in pain threshold (rats [5]; 20 mg/kg, 1 h): 10%
Increase in pain threshold (rats [5]; 20 mg/kg, 2 h): 14%
Increase in pain threshold (rats [5]; 20 mg/kg, 3 h): 11.3%
Change in Edema Volume (rats [6]; [9]): 1.51 ± 0.04 ns mL
Change in Edema Volume (rats [6]; [10]): 1.82 ± 0.03 mL
Change in Edema Volume (rats [6]; [11]): 1.99 ± 0.02 ns mL
Reduction in edema volume (rats [6]; 10 mg/kg, 2 h): approximately 9%
Change in Edema Volume (rats [6]; [13]): 1.15 ± 0.08 mL
Change in Edema Volume (rats [6]; [14]): 1.63 ± 0.04 mL
Change in Edema Volume (rats [6]; [15]): 1.91± 0.03 ns mL
Reduction in edema volume (rats [6]; 20 mg/kg, 1 h): 26.8%
Reduction in edema volume (rats [6]; 20 mg/kg, 2 h): 17.7%
Reduction of capsaicin-induced neurogenic pain (mice [7]; 5 mg/kg i.p.): 31%
Reduction of capsaicin-induced neurogenic pain (mice [7]; 10 mg/kg i.p.): 56%
Reduction of capsaicin-induced neurogenic pain (mice [7]; 20 mg/kg i.p.): 74.7%

O=C1c2ccccc2C(=O)N1CC(O)CN1CCN(c2cccc(C(F)(F)F)c2)CC1 (stereo not drawn) [Compound F3]
Reduction of glutamate-induced pain reaction (mice [1]; 10 mg/kg i.p.): 61%
Reduction of glutamate-induced pain reaction (mice [1]; 20 mg/kg i.p.): 70%
Pain threshold after compound administration (von Frey) (mice [2]): 5.21 ± 0.32 g
Analgesic activity (von Frey) (mice [2]): 81.13%
Pain response latency time after compound administration (hot plate, 55 °C) (mice [3]): 24.24 ± 1.46 s
Analgesic activity (hot plate) (mice [3]): 42.92%
Effect on locomotor activity / sedation [4]: mild sedative effects
Pain Threshold (rats [5]; [8]): 134.2 ± 2.4 g
Pain Threshold (rats [5]; [9]): 141.7 ± 1.7 g
Pain Threshold (rats [5]; [10]): 142.5 ± 2.1 g
Pain Threshold (rats [5]; [11]): 137.5 ± 1.7 g
Increase in pain threshold (rats [5]; 10 mg/kg, 1 h): 7%
Increase in pain threshold (rats [5]; 10 mg/kg, 2 h): 12.5%
Increase in pain threshold (rats [5]; 10 mg/kg, 3 h): 10%
Pain Threshold (rats [5]; [12]): 135.8 ± 1.5 g
Pain Threshold (rats [5]; [13]): 148.3 ± 3.3 g
Pain Threshold (rats [5]; [14]): 150.8 ± 3.9 g
Pain Threshold (rats [5]; [15]): 148.3 ± 3.1 g
Increase in pain threshold (rats [5]; 20 mg/kg, 1 h): 11.9%
Increase in pain threshold (rats [5]; 20 mg/kg, 2 h): 19%
Increase in pain threshold (rats [5]; 20 mg/kg, 3 h): 18.6%
Change in Edema Volume (rats [6]; [9]): 1.37 ± 0.04 ns mL
Change in Edema Volume (rats [6]; [10]): 1.70 ± 0.04 ns mL
Change in Edema Volume (rats [6]; [11]): 1.89 ± 0.03 mL
Reduction in edema volume (rats [6]; 10 mg/kg, 3 h): 9.5%
Change in Edema Volume (rats [6]; [13]): 1.14 ± 0.05 mL
Change in Edema Volume (rats [6]; [14]): 1.47 ± 0.07 mL
Change in Edema Volume (rats [6]; [15]): 1.67 ± 0.06 mL
Reduction in edema volume (rats [6]; 20 mg/kg, 1 h): 16.8%
Reduction in edema volume (rats [6]; 20 mg/kg, 2 h): 19.2%
Reduction in edema volume (rats [6]; 20 mg/kg, 3 h): 20.1%
Reduction of capsaicin-induced neurogenic pain (mice [7]; 20 mg/kg i.p.): 48.46%
